{"source": "patent US6737383B1", "about": "“Herbicidal oxadiazolidines” (priority 1999, dated 2004)", "key": {"corn": {"tested_on": "corn", "test": "Test B pre/postemergence corn", "format": "in vivo, Zea mays", "outline": "(§1)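 Herbicidal effect was estimated by eye on a ten-point control scale after plants spent twelve to sixteen days in a greenhouse following soil or foliar treatment. Foliar sprays targeted plants at one to four leaves; all doses were formulated in a non-phytotoxic solvent with surfactant.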"}, "giant foxtail": {"tested_on": "giant foxtail", "test": "Test B pre/postemergence giant foxtail", "format": "in vivo, Setaria faberii", "outline": "as §1"}, "blackgrass": {"tested_on": "blackgrass", "test": "Test B pre/postemergence blackgrass", "format": "in vivo, Alopecurus myosuroides", "outline": "as §1"}, "velvetleaf": {"tested_on": "velvetleaf", "test": "Test B pre/postemergence velvetleaf", "format": "in vivo, Abutilon theophrasti", "outline": "as §1"}, "soybean": {"tested_on": "soybean", "test": "Test B pre/postemergence soybean", "format": "in vivo, Glycine max", "outline": "as §1"}, "bedstraw": {"tested_on": "bedstraw", "test": "Test B pre/postemergence bedstraw", "format": "in vivo, Galium aparine", "outline": "as §1"}, "pigweed": {"tested_on": "pigweed", "test": "Test B pre/postemergence pigweed", "format": "in vivo, Amaranthus retroflexus", "outline": "as §1"}, "morningglory": {"tested_on": "morningglory", "test": "Test B pre/postemergence morningglory", "format": "in vivo, Ipomoea hederacea", "outline": "as §1"}, "wild oat": {"tested_on": "wild oat", "test": "Test B pre/postemergence wild oat", "format": "in vivo, Avena fatua", "outline": "as §1"}, "rape": {"tested_on": "rape", "test": "Test B pre/postemergence rape", "format": "in vivo, Brassica napus", "outline": "as §1"}, "cocklebur": {"tested_on": "cocklebur", "test": "Test B pre/postemergence cocklebur", "format": "in vivo, Xanthium strumarium", "outline": "as §1"}, "purple nutsedge": {"tested_on": "purple nutsedge", "test": "Test B pre/postemergence purple nutsedge", "format": "in vivo, Cyperus rotundus", "outline": "as §1"}, "crabgrass": {"tested_on": "crabgrass", "test": "Test B pre/postemergence crabgrass", "format": "in vivo, Digitaria sanguinalis", "outline": "as §1"}, "wheat": {"tested_on": "wheat", "test": "Test B pre/postemergence wheat", "format": "in vivo, Triticum aestivum", "outline": "as §1"}, "sugar beet": {"tested_on": "sugar beet", "test": "Test B pre/postemergence sugar beet", "format": "in vivo, Beta vulgaris", "outline": "as §1"}, "surinam grass": {"tested_on": "surinam grass", "test": "Test B pre/postemergence surinam grass", "format": "in vivo, Brachiaria decumbens", "outline": "as §1"}, "[1]": {"conditions": "Postemergence, Rate 62 g/ha, scale of 0 to 10, 0 is no effect, 10 is complete control"}, "[2]": {"conditions": "Postemergence, Rate 125 g/ha, scale 0 to 10, 0 is no effect, 10 is complete control"}, "[3]": {"conditions": "Postemergence, Rate 250 g/ha, scale 0 to 10"}, "[4]": {"conditions": "Postemergence, Rate 500 g/ha, scale 0 to 10, 0 is no effect, 10 is complete control"}, "[5]": {"conditions": "Preemergence, Rate 62 g/ha, scale of 0 to 10 where 0 is no effect and 10 is complete control"}, "[6]": {"conditions": "Preemergence, Rate 125 g/ha, scale 0 to 10, 0 is no effect, 10 is complete control"}, "[7]": {"conditions": "Preemergence, Rate 500 g/ha, scale of 0 to 10 where 0 is no effect and 10 is complete control"}, "[8]": {"conditions": "Preemergence, Rate 250 g/ha, scale 0 to 10, 0 is no effect, 10 is complete control"}, "[9]": {"conditions": "Preemergence, Rate 500 g/ha, scale 0 to 10, 0 is no effect, 10 is complete control"}}}
{"smiles": "CC(=O)OCCCCn1c(=O)on(C(=O)N(c2ccc(F)cc2F)C(C)C)c1=O", "note": "[Compound 506]", "values": [{"measurement": "Corn plant response rating", "setting": "corn; [1]", "value": 0}, {"measurement": "Corn plant response rating", "setting": "corn; [2]", "value": 0}, {"measurement": "Corn plant response rating", "setting": "corn; [3]", "value": 0}, {"measurement": "Plant response rating, Corn", "setting": "corn; [4]", "value": 0}, {"measurement": "Plant response rating, Corn", "setting": "corn; [5]", "value": 0}, {"measurement": "Corn plant response rating", "setting": "corn; [6]", "value": 0}, {"measurement": "Corn plant response rating", "setting": "corn; [7]", "value": 0}, {"measurement": "Giant foxtail plant response rating", "setting": "giant foxtail; [1]", "value": 2}, {"measurement": "Plant response rating, Giant foxtail", "setting": "giant foxtail; [4]", "value": 8}, {"measurement": "Plant response rating, Giant foxtail", "setting": "giant foxtail; [5]", "value": 0}, {"measurement": "Giant foxtail plant response rating", "setting": "giant foxtail; [6]", "value": 5}, {"measurement": "Giant foxtail plant response rating", "setting": "giant foxtail; [7]", "value": 8}, {"measurement": "Blackgrass plant response rating", "setting": "blackgrass; [1]", "value": 0}, {"measurement": "Blackgrass plant response rating", "setting": "blackgrass; [2]", "value": 0}, {"measurement": "Blackgrass plant response rating", "setting": "blackgrass; [3]", "value": 5}, {"measurement": "Plant response rating, Blackgrass", "setting": "blackgrass; [4]", "value": 6}, {"measurement": "Plant response rating, Blackgrass", "setting": "blackgrass; [5]", "value": 0}, {"measurement": "Blackgrass plant response rating", "setting": "blackgrass; [6]", "value": 0}, {"measurement": "Blackgrass plant response rating", "setting": "blackgrass; [8]", "value": 4}, {"measurement": "Blackgrass plant response rating", "setting": "blackgrass; [7]", "value": 9}, {"measurement": "Velvetleaf plant response rating", "setting": "velvetleaf; [1]", "value": 0}, {"measurement": "Velvetleaf plant response rating", "setting": "velvetleaf; [2]", "value": 0}, {"measurement": "Plant response rating, Velvetleaf", "setting": "velvetleaf; [4]", "value": 4}, {"measurement": "Plant response rating, Velvetleaf", "setting": "velvetleaf; [5]", "value": 0}, {"measurement": "Velvetleaf plant response rating", "setting": "velvetleaf; [6]", "value": 0}, {"measurement": "Velvetleaf plant response rating", "setting": "velvetleaf; [7]", "value": 0}, {"measurement": "Soybean plant response rating", "setting": "soybean; [1]", "value": 2}, {"measurement": "Soybean plant response rating", "setting": "soybean; [2]", "value": 2}, {"measurement": "Plant response rating, Soybean", "setting": "soybean; [4]", "value": 4}, {"measurement": "Plant response rating, Soybean", "setting": "soybean; [5]", "value": 0}, {"measurement": "Soybean plant response rating", "setting": "soybean; [6]", "value": 0}, {"measurement": "Soybean plant response rating", "setting": "soybean; [7]", "value": 0}, {"measurement": "Plant response rating, Bedstraw", "setting": "bedstraw; [4]", "value": 9}, {"measurement": "Plant response rating, Bedstraw", "setting": "bedstraw; [5]", "value": 0}, {"measurement": "Bedstraw plant response rating", "setting": "bedstraw; [6]", "value": 0}, {"measurement": "Bedstraw plant response rating", "setting": "bedstraw; [8]", "value": 0}, {"measurement": "Bedstraw plant response rating", "setting": "bedstraw; [9]", "value": 4}, {"measurement": "Redroot pigweed plant response rating", "setting": "pigweed; [1]", "value": 0}, {"measurement": "Redroot pigweed plant response rating", "setting": "pigweed; [2]", "value": 0}, {"measurement": "Plant response rating, Redroot pigweed", "setting": "pigweed; [4]", "value": 0}, {"measurement": "Plant response rating, Redroot pigweed", "setting": "pigweed; [5]", "value": 2}, {"measurement": "Redroot pigweed plant response rating", "setting": "pigweed; [6]", "value": 8}, {"measurement": "Redroot pigweed plant response rating", "setting": "pigweed; [7]", "value": 10}, {"measurement": "Morningglory plant response rating", "setting": "morningglory; [1]", "value": 0}, {"measurement": "Morningglory plant response rating", "setting": "morningglory; [2]", "value": 0}, {"measurement": "Plant response rating, Morningglory", "setting": "morningglory; [4]", "value": 5}, {"measurement": "Plant response rating, Morningglory", "setting": "morningglory; [5]", "value": 0}, {"measurement": "Morningglory plant response rating", "setting": "morningglory; [6]", "value": 0}, {"measurement": "Morningglory plant response rating", "setting": "morningglory; [7]", "value": 0}, {"measurement": "Wild oats plant response rating", "setting": "wild oat; [1]", "value": 0}, {"measurement": "Wild oats plant response rating", "setting": "wild oat; [2]", "value": 0}, {"measurement": "Plant response rating, Wild oats", "setting": "wild oat; [4]", "value": 2}, {"measurement": "Plant response rating, Wild oats", "setting": "wild oat; [5]", "value": 0}, {"measurement": "Wild oats plant response rating", "setting": "wild oat; [6]", "value": 2}, {"measurement": "Wild oats plant response rating", "setting": "wild oat; [7]", "value": 7}, {"measurement": "Rape plant response rating", "setting": "rape; [1]", "value": 0}, {"measurement": "Rape plant response rating", "setting": "rape; [2]", "value": 0}, {"measurement": "Plant response rating, Rape", "setting": "rape; [4]", "value": 7}, {"measurement": "Plant response rating, Rape", "setting": "rape; [5]", "value": 0}, {"measurement": "Rape plant response rating", "setting": "rape; [6]", "value": 0}, {"measurement": "Rape plant response rating", "setting": "rape; [7]", "value": 8}, {"measurement": "Cocklebur plant response rating", "setting": "cocklebur; [1]", "value": 0}, {"measurement": "Cocklebur plant response rating", "setting": "cocklebur; [2]", "value": 0}, {"measurement": "Cocklebur plant response rating", "setting": "cocklebur; [3]", "value": 2}, {"measurement": "Plant response rating, Cocklebur", "setting": "cocklebur; [4]", "value": 6}, {"measurement": "Plant response rating, Cocklebur", "setting": "cocklebur; [5]", "value": 0}, {"measurement": "Cocklebur plant response rating", "setting": "cocklebur; [6]", "value": 0}, {"measurement": "Cocklebur plant response rating", "setting": "cocklebur; [8]", "value": 0}, {"measurement": "Cocklebur plant response rating", "setting": "cocklebur; [7]", "value": 0}, {"measurement": "Nutsedge plant response rating", "setting": "purple nutsedge; [1]", "value": 0}, {"measurement": "Nutsedge plant response rating", "setting": "purple nutsedge; [2]", "value": 0}, {"measurement": "Plant response rating, Nutsedge", "setting": "purple nutsedge; [4]", "value": 0}, {"measurement": "Plant response rating, Nutsedge", "setting": "purple nutsedge; [5]", "value": 0}, {"measurement": "Nutsedge plant response rating", "setting": "purple nutsedge; [6]", "value": 0}, {"measurement": "Nutsedge plant response rating", "setting": "purple nutsedge; [7]", "value": 10}, {"measurement": "Crabgrass plant response rating", "setting": "crabgrass; [1]", "value": 0}, {"measurement": "Crabgrass plant response rating", "setting": "crabgrass; [2]", "value": 3}, {"measurement": "Crabgrass plant response rating", "setting": "crabgrass; [3]", "value": 7}, {"measurement": "Plant response rating, Crabgrass", "setting": "crabgrass; [4]", "value": 8}, {"measurement": "Plant response rating, Crabgrass", "setting": "crabgrass; [5]", "value": 0}, {"measurement": "Crabgrass plant response rating", "setting": "crabgrass; [6]", "value": 0}, {"measurement": "Crabgrass plant response rating", "setting": "crabgrass; [7]", "value": 6}, {"measurement": "Wheat plant response rating", "setting": "wheat; [1]", "value": 0}, {"measurement": "Wheat plant response rating", "setting": "wheat; [2]", "value": 0}, {"measurement": "Plant response rating, Wheat", "setting": "wheat; [4]", "value": 4}, {"measurement": "Plant response rating, Wheat", "setting": "wheat; [5]", "value": 0}, {"measurement": "Wheat plant response rating", "setting": "wheat; [6]", "value": 0}, {"measurement": "Wheat plant response rating", "setting": "wheat; [7]", "value": 2}, {"measurement": "Sugarbeets plant response rating", "setting": "sugar beet; [1]", "value": 2}, {"measurement": "Sugarbeets plant response rating", "setting": "sugar beet; [2]", "value": 6}, {"measurement": "Plant response rating, Sugarbeets", "setting": "sugar beet; [4]", "value": 7}, {"measurement": "Plant response rating, Sugarbeets", "setting": "sugar beet; [5]", "value": 0}, {"measurement": "Sugarbeets plant response rating", "setting": "sugar beet; [6]", "value": 0}, {"measurement": "Sugarbeets plant response rating", "setting": "sugar beet; [7]", "value": 0}, {"measurement": "B. signalgrass plant response rating", "setting": "surinam grass; [1]", "value": 0}, {"measurement": "B. signalgrass plant response rating", "setting": "surinam grass; [2]", "value": 0}, {"measurement": "B. signalgrass plant response rating", "setting": "surinam grass; Postemergence, Rate 250 g/ha, scale 0 to 10, 0 no effect, 10 complete control", "value": 0}, {"measurement": "Plant response rating, B. signalgrass", "setting": "surinam grass; [4]", "value": 0}, {"measurement": "Plant response rating, B. signalgrass", "setting": "surinam grass; [5]", "value": 0}, {"measurement": "B. signalgrass plant response rating", "setting": "surinam grass; [6]", "value": 0}, {"measurement": "B. signalgrass plant response rating", "setting": "surinam grass; [8]", "value": 0}, {"measurement": "B. signalgrass plant response rating", "setting": "surinam grass; [9]", "value": 0}]}
